One data set relates to Aphis craccivora. As to the kind of experiment: Insecticidal activity against Aphis craccivora by immersing (mortality after 24 hours). In kind it is in vivo. The following applies: for Mortality (%) (500 ppm) Aphis craccivora: in vivo. On the procedure: Aphis, which belongs to Homoptera and has a piercing-sucking mouthpart, is a common insect for agricultural plant. Aphis craccivora was tested by the way of immersing.
Test method: exactly weighed various samples were independently added to N,N-dimethylformamide to form a 10 g/L stock solution. The mixture was diluted with 0.2 mL/L aqueous Triton X-100 solution to a concentration of 500 ug/mL. After stably sucking on bean sprout, the adult aphis without wings together with bean sprout was dipped into the dilution of 500 ug/mL, 100 ug/mL, 50 ug/mL, 25 ug/mL, 12.5 ug/mL, 6.25 ug/mL (LD50 was calculated), taken out after 5 seconds, and the excess dilution was sucked out with bibulous paper and the adult aphis without wings was incubated in clean vessel at a constant temperature of 23° C. Each concentration was repeated for 3 times and the control group contained 0.2 mL/L aqueous Triton X-100 solution. The number of killed aphis was counted after 24 hours to calculate the mortality.

In another data set the test system is Nilaparvata lugens. Kind of data set: Insecticidal activity against Nilaparvata lugens by spraying (mortality after 24 hours). The following applies: for Mortality (%) (500 ppm) Nilaparvata lugens: spraying 2 ml, counted after 24 hours. Type of data set: in vivo. How it is done:
Plant hopper, which belongs to Homoptera and has a piercing-sucking mouthpart, is a common insect for agricultural plant. Nilaparvata lugens was tested by the way of spraying.
Test method: the compound to be tested was exactly formulated into a solution having a certain concentration and clean water was used as a blank control. Each process was repeated for 3 tumblers (3 times). 2 ml of solution was sprayed uniformly to each tumbler by a mini manual sprayer. 10 Nilaparvata lugens were introduced to every sink 6 hours before spraying. Three series of experiments were conducted. The number of killed Nilaparvata lugens was counted after 24 hours to calculate the mortality.

Broadly, the mortality is the percentage killed. For `COC1CC([N+](=O)[O-])=C2N(Cc3ccc(Cl)nc3)CCN2C1O` (centres unmarked) [Compound 46, 1-((6-chloropyridin-3-yl)methyl)-6-methoxy-8-nitro-1,2,3,5,6,7-hexahydroimidazo[1,2-a]pyridin-5-ol], the mortality at 500 ppm in the data set with Aphis craccivora (Aphis craccivora, 24 h, read-out: Mortality (%) (500 ppm) Aphis craccivora) was 100%; in the data set on Nilaparvata lugens (Nilaparvata lugens, 24 h, read-out: Mortality (%) (500 ppm) Nilaparvata lugens) it was 73%.
With `CCOC1CC([N+](=O)[O-])=C2N(Cc3ccc(Cl)nc3)CCN2C1O` (centres unmarked) [Compound 47], in the data set with Aphis craccivora, the “Mortality (%) (500 ppm) Aphis craccivora” value is listed as 98%. Also, the “Mortality (%) (500 ppm) Nilaparvata lugens” value in the data set on Nilaparvata lugens amounted to 91%.
For `COC1CC([N+](=O)[O-])=C2N(Cc3cnc(Cl)s3)CCN2C1O` (centres unmarked) [Compound 48], in that order: 85% and 90%.
For the compound `COC1C(C)C([N+](=O)[O-])=C2N(Cc3ccc(Cl)nc3)CCN2C1O` (centres unmarked) [Compound 49], the “Mortality (%) (500 ppm) Aphis craccivora” value in the data set with Aphis craccivora is on record as 100%. Moreover, the “Mortality (%) (500 ppm) Nilaparvata lugens” value with Nilaparvata lugens was 100%.

The record behind these values is patent US20090111847A1, “PREPARATION METHOD AND USE OF COMPOUNDS HAVING HIGH INSECTICIDAL ACTIVITIES” (priority 2006, published 2009).
